Results taken from the supplement of paper PMC5844555.

Experiments:
Experiment in all cases: 3' UTR reporter interaction score (median-centred robust z-score of log2 firefly/Renilla activity); higher = less repression of the 3' UTR reporter
Settings in all cases: HEK293T; 48 h
[1] = system: MYCN
In short: (§1)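 A firefly luc2P reporter carrying the gene's 3' UTR (100 ng), Renilla pRL-TK control (20 ng) and miRNA mimic (2.5 pmol) were co-transfected with DharmaFECT Duo into HEK293T cells plated at 10,000/well in 96-well plates. Luciferase activities were read 48 h post-transfection. The interaction score is the log firefly/Renilla ratio as a per-plate robust z-score from median and median absolute deviation, median-centred per miRNA, and more negative indicates interaction. Values are averages of at least two independent screens.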

[2] = system: ZEB2
In short: as §1

[3] = system: MYC
In short: as §1

[4] = system: BRCA2
In short: as §1

[5] = system: MYB
In short: as §1

[6] = system: FBXW7
In short: as §1

[7] = system: PHF6
In short: as §1

[8] = system: HRAS
In short: as §1

[9] = system: RB1
In short: as §1

[10] = system: TP53
In short: as §1

[11] = system: NOTCH1
In short: as §1

[12] = system: PHOX2B
In short: as §1

[13] = system: MYT1L
In short: as §1

[14] = system: EZH2
In short: as §1

Sequence	3' UTR reporter interaction score [1]	3' UTR reporter interaction score [2]	3' UTR reporter interaction score [3]	3' UTR reporter interaction score [4]	3' UTR reporter interaction score [5]	3' UTR reporter interaction score [6]	3' UTR reporter interaction score [7]	3' UTR reporter interaction score [8]	3' UTR reporter interaction score [9]	3' UTR reporter interaction score [10]	3' UTR reporter interaction score [11]	3' UTR reporter interaction score [12]	3' UTR reporter interaction score [13]	3' UTR reporter interaction score [14]
AGCUGGUGUUGUGAAUC	0.275	0.43	0.179	-0.493	0.129	-0.398	-0.508	-0.334	-0.243	0.136	0.152	0.54	0.16	-0.157
AGCUGUCUGAAAAUGUCUU	-0.701	-0.552	0.303	-0.293	-0.536	0.675	-0.786	-0.208	0.19	0.132	-0.774	1.04	0.171	-0.132
AGGAAGCCCUGGAGGGGCUGGAGGU	1.43	-0.152	-0.314	-1.21	0.39	-0.101	-0.529	0.456	-0.165	0.127	-1.34	1.18	1.24	-0.359
AGGAAUGUUCCUUCUUUGCC	-0.0855	2.6	0.63	-1.4	-0.0682	-2.13	-0.446	0.683	0.276	-0.812	-0.469	2.32	-0.098	-0.309
AGGACCUGCGGGACAAGAUUCUU	-0.207	0.526	-0.0464	0.115	0.35	-0.188	-0.476	-0.0697	0.102	-0.45	0.243	1.33	-0.0205	-0.425
AGGAGGCAGCGCUCUCAGGAC	0.868	2.03	-1.13	-0.741	0.571	-0.582	1.36	-0.534	0.463	-0.457	-2.44	0.109	2.05	-1.61
AGGCACGGUGUCAGCAGGC	-0.274	-0.659	0.509	-0.203	0.171	0.393	0.283	-0.153	0.0845	-0.839	0.0125	0.32	0.478	0.629
AGGCAGUGUAGUUAGCUGAUUGC	-5.02	-0.539	-1.05	0.647	-4.27	-0.242	-2.27	1.1	0.138	0.285	-3.48	-1.02	0.754	1.87
AGGCAGUGUAUUGUUAGCUGGC	-5.92	0.15	-2.42	1.59	-4.72	0.842	-4.67	0.697	-1.56	1.19	-4.34	0.369	0.156	-0.179
AGGCGGGGCGCCGCGGGACCGC	-0.386	0.258	-0.234	-0.123	-0.412	-0.475	1.42	-0.439	0.467	-0.353	0.236	-0.317	-0.425	-1.53
AGGCUGCGGAAUUCAGGAC	0.119	2.21	-0.912	-1.7	0.132	0.871	1.89	-1.18	0.76	-1.78	0.93	-0.147	1.31	-1.27
AGGGAUCGCGGGCGGGUGGCGGCCU	-0.927	-0.0578	-0.321	0.916	0.376	-0.971	2.46	-0.484	-0.0484	0.628	0.433	-1.25	-0.194	-0.298
AGGGCCCCCCCUCAAUCCUGU	-0.0892	1.65	-0.761	0.425	0.144	0.757	0.378	-0.753	1.06	-0.172	-0.584	0.177	0.617	0.205
AGGGGGAAAGUUCUAUAGUCCU	0.426	2.84	-1.56	-1.55	1.55	0.691	1.82	0.225	0.755	-0.601	-1.57	1.33	-0.154	-1.49
AGGGGUGGUGUUGGGACAGCUCCGU	0.408	0.212	-0.499	-0.768	-0.179	0.925	-0.137	-1.12	0.429	0.0145	-4.27	-0.841	-0.319	0.203
AGGGUAAGCUGAACCUCUGAU	1.35	-0.308	-0.643	0.0158	0.366	2.4	-0.384	-0.74	-1.03	0.182	-0.542	1.64	0.432	-0.149
AGGGUGUUUCUCUCAUCUCU	1.22	-0.283	0.84	-0.403	1.44	-0.794	1.32	0.396	-0.774	0.571	-1.24	2.27	-2.32	-0.619
AGGUUACCCGAGCAACUUUGCA	0.0957	0.562	-0.29	-1.98	1.71	-1.16	0.436	-1.62	2.97	-1.44	0.652	2.07	2.75	-1.68
AGGUUGACAUACGUUUCCC	-0.377	1.11	-0.726	-0.754	0.862	-0.16	0.251	-1.43	0.54	-0.178	1.09	0.494	0.798	-0.54

Sequence	3' UTR reporter interaction score [1]	3' UTR reporter interaction score [2]	3' UTR reporter interaction score [3]	3' UTR reporter interaction score [4]	3' UTR reporter interaction score [5]	3' UTR reporter interaction score [6]	3' UTR reporter interaction score [7]	3' UTR reporter interaction score [8]	3' UTR reporter interaction score [9]	3' UTR reporter interaction score [10]	3' UTR reporter interaction score [11]	3' UTR reporter interaction score [12]	3' UTR reporter interaction score [13]	3' UTR reporter interaction score [14]
AGUAUGUUCUUCCAGGACAGAAC	-0.169	0.181	0.576	-2.15	0.712	0.574	-0.447	0.113	0.243	0.258	-0.607	-1.01	-0.575	0.482
AGUAUUCUGUACCAGGGAAGGU	0.786	-1.77	0.255	0.623	-0.25	1.75	-1.2	-0.0345	-0.386	0.107	0.758	0.0656	-1.07	-2.56
AGUGACAUCACAUAUACGGCAGC	0.321	1.55	-0.366	-1.13	0.233	-1.31	0.28	-0.649	0.945	-0.15	0.273	0.805	0.969	-0.788
AGUGGGGAACCCUUCCAUGAGGA	0.0621	1.02	-0.465	0.0202	0.186	0.423	0.14	0.144	0.472	-3.21	-0.0192	-0.69	-1.79	-0.974
AGUGGUUUUACCCUAUGGUAG	0.551	-0.644	0.603	-2.62	2.26	-0.0104	1.32	-0.669	1.79	-3.34	-0.395	1.56	1.52	0.908
AGUGUGGCUUUCUUAGAGC	0.47	0.748	-0.501	-3.13	0.805	1.11	-0.715	0.377	-0.335	-0.0434	-0.152	1.11	-0.23	-0.421
AGUUAAUGAAUCCUGGAAAGU	0.0474	0.251	0.0217	-0.407	0.47	0.0665	-0.54	-0.441	-0.487	-0.194	-0.406	-0.662	-0.25	-0.175
AUAAGACGAGCAAAAAGCUUGU	-0.0307	-2.58	-0.771	2.27	-1.19	0.133	-0.375	0.557	-1.39	0.501	-0.743	-0.501	0.212	1.23
AUAAUACAUGGUUAACCUCUUU	1.04	-2.7	0.024	-0.764	1.01	-0.808	-0.737	-0.143	-0.631	-0.592	0.871	-0.62	0.598	0
AUCAACAGACAUUAAUUGGGCGC	-0.34	1.91	-1.29	1.26	0.0314	1.67	-1.06	1.56	1.49	-1.55	-1.2	-0.111	-0.0651	1.19
AUCACACAAAGGCAACUUUUGU	0.776	-0.747	0.0727	-0.664	0.989	-0.0452	-0.33	-0.777	0.566	-0.723	0.929	0.549	0.734	-1.06
AUCACAUUGCCAGGGAUUUCC	0.592	2.06	-0.00223	-1.67	-0.3	0.0652	0.394	-0.452	0.826	-1.29	-0.492	-0.216	0.197	0.281
AUCAGCAAACAUUUAUUGUGUG	-0.181	1.25	-0.19	0.0901	1.62	-0.701	1.01	-1.06	1.07	0.16	0.157	1.35	-0.934	-1.04
AUCAUAGAGGAAAAUCCACGU	0.335	-0.144	-0.578	0.121	-0.185	0.0331	0.424	-1.11	-0.168	0.405	0.241	0.628	0.0345	0.733
AUCAUAGAGGAAAAUCCAUGUU	0.0452	-1.1	-0.229	-0.0049	0.366	-0.575	-0.0407	-0.664	0.00936	0.636	1.28	0.462	-0.0506	0.791
AUCAUGAUGGGCUCCUCGGUGU	-1.14	0.672	-1.04	-0.103	0.47	-2.53	0.0291	0.527	0.226	0.202	-2.44	-0.574	1.53	-0.332
AUCCCUUGCAGGGGCUGUUGGGU	0.104	1.78	0.108	-0.445	0.681	-1.6	-0.0289	-0.0656	-0.201	-0.855	0.359	-1.62	0.613	0.197
AUCCUUGCUAUCUGGGUGCUA	1.2	-0.105	0.118	-0.448	0.799	0.895	-1.61	-3.26	-2.46	0.763	0.113	-0.723	0.363	-0.755
AUCGCUGCGGUUGCGAGCGCUGU	0.0647	0.885	0.0173	-2.3	1.13	0.301	2.14	-1.73	-0.265	-0.536	-0.324	2.38	1.61	-1.15
